{"source": "patent US6066628A", "about": "“Non-iron metalloporphyrins and methods of use” (Emory University, priority 1998, dated 2000)", "key": {"[1]": {"test_system": "yeasts", "test": "Yeast growth inhibition", "type": "cell-based"}, "[2]": {"test_system": "Cryptococcus neoformans", "test": "MIC 80 microdilution, clinical yeast isolates", "type": "cell-based", "experimental": "(§1) MICs of Ga-UPI against selected clinical yeast isolates. Growth was\n(§2) scored after 24 and 48 hours of incubation."}, "[3]": {"test_system": "Candida albicans", "test": "MIC 80 microdilution, clinical yeast isolates", "type": "cell-based", "experimental": "as §1, §2"}, "[4]": {"test_system": "Candida tropicalis", "test": "MIC 80 microdilution, clinical yeast isolates", "type": "cell-based", "experimental": "as §1, §2"}, "[5]": {"test_system": "Candida glabrata", "test": "MIC 80 microdilution, clinical yeast isolates", "type": "cell-based", "experimental": "as §1, §2"}, "[6]": {"test_system": "S. aureus", "test": "Minimal bactericidal concentration", "type": "cell-based, Staphylococcus aureus", "conditions": "reduces plating efficiency more than 99.9%; minimal exposure to light", "experimental": "Minimal bactericidal concentrations (MBCs) were determined essentially the same way as MICs except that the amount of killing with a particular concentration of porphyrin derivative was determined by plating on solid microbiological media (LB plates or LB+Tween 80). Media were solidified by the incorporation of 1.5% agar (Difco Laboratories). Concentrations of porphyrins that produced 99.9% reduction in bacterial counts were considered bactericidal [Hindler et al. (1994) supra].\nMBC were determined by plating bacterial cultures that have been incubate\nin the presence of MPs at concentrations higher than MIC. MBC was defined\nas a concentration of a particular MP which reduces the plating efficienc\nmore than 99.9%. Experiments were done with minimal exposure to light\n(addition of porphyrins waa done in the presence of artifical light)."}, "[7]": {"test_system": "bacteria", "type": "cell-based"}, "[8]": {"test_system": "Y. enterocolitica", "test": "Minimal bactericidal concentration", "type": "cell-based", "conditions": "reduces plating efficiency more than 99.9%; minimal exposure to light"}, "[9]": {"test_system": "Candida krusei", "test": "MIC 80 microdilution, clinical yeast isolates", "type": "cell-based"}, "[10]": {"test_system": "M. smegmatis", "test": "Minimal bactericidal concentration", "type": "cell-based, Mycobacterium smegmatis", "conditions": "reduces plating efficiency more than 99.9%; minimal exposure to light"}, "[11]": {"test_system": "Candida pillosus", "test": "MIC 80 microdilution, clinical yeast isolates", "type": "cell-based"}}}
{"compound": "O=C(O)CCC1=C(CC(=O)O)C2=NC1=Cc1c(CC(=O)O)c(CCC(=O)O)c3[n]1[Ga]([Cl])[n]1c(c(CCC(=O)O)c(CC(=O)O)c1=CC1=NC(=C3)C(CC(=O)O)=C1CCC(=O)O)=C2", "note": "[Ga-UPI, Ga-uroporphyrin I]", "values": [{"measurement": "inhibition of growth of yeast", "setting": "[1]", "value": "able to inhibit growth of yeast"}, {"measurement": "MIC 80", "setting": "[2]; 97-044, 24 hours", "value": 16, "unit": "µg/mL"}, {"measurement": "MIC 80", "setting": "[2]; 97-044, 48 hours", "value": 16, "unit": "µg/mL"}, {"measurement": "MIC 80", "setting": "[2]; 97-045, 24 hours", "value": 16, "unit": "µg/mL"}, {"measurement": "MIC 80", "setting": "[2]; 97-045, 48 hours", "value": 32, "unit": "µg/mL"}, {"measurement": "MIC 80", "setting": "[2]; 97-046, 24 hours", "value": 16, "unit": "µg/mL"}, {"measurement": "MIC 80", "setting": "[2]; 97-046, 48 hours", "value": 16, "unit": "µg/mL"}, {"measurement": "MIC 80", "setting": "[2]; 97-047, 24 hours", "value": 8, "unit": "µg/mL"}, {"measurement": "MIC 80", "setting": "[2]; 97-047, 48 hours", "value": 16, "unit": "µg/mL"}, {"measurement": "MIC 80", "setting": "[2]; 97-048, 24 hours", "value": 16, "unit": "µg/mL"}, {"measurement": "MIC 80", "setting": "[2]; 97-048, 48 hours", "value": 16, "unit": "µg/mL"}, {"measurement": "MIC 80", "setting": "[3]; 97-010, 24 hours", "value": 2, "unit": "µg/mL"}, {"measurement": "MIC 80", "setting": "[3]; 97-010, 48 hours", "value": 8, "unit": "µg/mL"}, {"measurement": "MIC 80", "setting": "[3]; 97-012, 24 hours", "value": 2, "unit": "µg/mL"}, {"measurement": "MIC 80", "setting": "[3]; 97-012, 48 hours", "value": 8, "unit": "µg/mL"}, {"measurement": "MIC 80", "setting": "[3]; 97-014, 24 hours", "value": 2, "unit": "µg/mL"}, {"measurement": "MIC 80", "setting": "[3]; 97-014, 48 hours", "value": 8, "unit": "µg/mL"}, {"measurement": "MIC 80", "setting": "[3]; 97-015, 24 hours", "value": 2, "unit": "µg/mL"}, {"measurement": "MIC 80", "setting": "[3]; 97-015, 48 hours", "value": 8, "unit": "µg/mL"}, {"measurement": "MIC 80", "setting": "[3]; 97-031, 24 hours", "value": 2, "unit": "µg/mL"}, {"measurement": "MIC 80", "setting": "[3]; 97-031, 48 hours", "value": 16, "unit": "µg/mL"}, {"measurement": "MIC 80", "setting": "[4]; 97-054, 24 hours", "value": 16, "unit": "µg/mL"}, {"measurement": "MIC 80", "setting": "[4]; 97-054, 48 hours", "value": 32, "unit": "µg/mL"}, {"measurement": "MIC 80", "setting": "[4]; 97-055, 24 hours", "value": 8, "unit": "µg/mL"}, {"measurement": "MIC 80", "setting": "[4]; 97-055, 48 hours", "value": 16, "unit": "µg/mL"}, {"measurement": "MIC 80", "setting": "[5]; 97-049, 24 hours", "value": 8, "unit": "µg/mL"}, {"measurement": "MIC 80", "setting": "[5]; 97-049, 48 hours", "value": 32, "unit": "µg/mL"}, {"measurement": "MIC 80", "setting": "[5]; 97-050, 24 hours", "value": 8, "unit": "µg/mL"}, {"measurement": "MIC 80", "setting": "[5]; 97-050, 48 hours", "value": 16, "unit": "µg/mL"}, {"measurement": "MIC 80", "setting": "[5]; 97-051, 24 hours", "value": 8, "unit": "µg/mL"}, {"measurement": "MIC 80", "setting": "[5]; 97-051, 48 hours", "value": 32, "unit": "µg/mL"}, {"measurement": "MIC 80", "setting": "[5]; 97-052, 24 hours", "value": 8, "unit": "µg/mL"}, {"measurement": "MIC 80", "setting": "[5]; 97-052, 48 hours", "value": 32, "unit": "µg/mL"}, {"measurement": "MIC 80", "setting": "[5]; 97-053, 24 hours", "value": 8, "unit": "µg/mL"}, {"measurement": "MIC 80", "setting": "[5]; 97-053, 48 hours", "value": 16, "unit": "µg/mL"}, {"measurement": "Minimal bactericidal concentration (MBC)", "setting": "[6]", "value": 10}, {"measurement": "antibacterial activity", "setting": "[7]", "value": "seriously limited in their antibacterial activities"}, {"measurement": "Minimal bactericidal concentration (MBC)", "setting": "[8]", "value": 10}, {"measurement": "MIC 80", "setting": "[9]; 97-058, 24 hours", "value": 1, "unit": "µg/mL"}, {"measurement": "MIC 80", "setting": "[9]; 97-058, 48 hours", "value": 4, "unit": "µg/mL"}, {"measurement": "MIC 80", "setting": "[9]; 97-059, 24 hours", "value": 2, "unit": "µg/mL"}, {"measurement": "MIC 80", "setting": "[9]; 97-059, 48 hours", "value": 8, "unit": "µg/mL"}, {"measurement": "MIC 80", "setting": "[9]; ATCC-6258, 24 hours", "value": 1, "unit": "µg/mL"}, {"measurement": "MIC 80", "setting": "[9]; ATCC-6258, 48 hours", "value": 2, "unit": "µg/mL"}, {"measurement": "Minimal bactericidal concentration (MBC)", "setting": "[10]", "value": 10}, {"measurement": "MIC 80", "setting": "[11]; 97-056, 24 hours", "value": 1, "unit": "µg/mL"}, {"measurement": "MIC 80", "setting": "[11]; 97-056, 48 hours", "value": 2, "unit": "µg/mL"}, {"measurement": "MIC 80", "setting": "[11]; 97-057, 24 hours", "value": 2, "unit": "µg/mL"}, {"measurement": "MIC 80", "setting": "[11]; 97-057, 48 hours", "value": 8, "unit": "µg/mL"}]}
